Laboratory results from patent US20050191245A1, “Nasal administration of calcium channel, blockers for treatment of hypertension and other cardiovascular disorders” (priority 2004, published 2005).
Read-outs that look alike come from different tables or passages of the source.

Key:
[1] = test system: male Sprague-Dawley rats
[2] = test system: male Sprague-Dawley rats; conditions: nasal, 2%, 20 uL/nare; vehicle cyclodextrin; urethane-anesthetized rats; FIG. 2
Procedure: Mean arterial blood pressure was measured using a Digi-Med Blood Pressure Analyzer. The rats were anesthetized with urethane (2 g/kg, IP) and the left carotid artery was cannulated. A baseline blood pressure was recorded then the drug (or vehicle) was administered and blood pressure recorded for 45-60 minutes.

| total distance traveled, compared to no treatment group ([1]; rat, in vivo) | total distance traveled, drug treated groups compared to vehicle treated group ([1]; rat, in vivo) | SMILES | effect on mean arterial blood pressure compared to vehicle treated group [2] | total distance traveled, drug treated groups compared to vehicle treated group ([1]; nasal, 2%, 20 uL/nare, vehicle distilled water, an hour after administration, FIG. 5) |
| --- | --- | --- | --- | --- |
| statistically significant difference | no significant difference | C(=C\c1ccccc1)/CN1CCN(C(c2ccccc2)c2ccccc2)CC1 [cinnarizine] | Only the nifedipine group at 45 minutes was statistically significantly different | – |
| – | no significant difference | COc1ccc([C@@H]2Sc3ccccc3N(CCN(C)C)C(=O)[C@@H]2OC(C)=O)cc1 [diltiazem] | – | – |
| – | – | COc1ccc(CCN(C)CCCC(C#N)(c2ccc(OC)c(OC)c2)C(C)C)cc1OC (centres unmarked) [verapamil] | – | no significant difference |
